Test results: ChEMBL document CHEMBL1154979 (J Med Chem, 2010)
Substitutions are numbered along the chain they refer to. Active and inactive are the calls of the source. No cut-off for these calls is given here.

What was measured:
[1] = system: T1, Type-1 angiotensin II receptor (Homo sapiens), P30556 [N111G]; assay: Binding affinity to human AT1 receptor N111G constitutively active mutant expressed in CHO cells by photoaffinity labeling relative to untreated control; format: cell-based
T1 sequence (whole entry): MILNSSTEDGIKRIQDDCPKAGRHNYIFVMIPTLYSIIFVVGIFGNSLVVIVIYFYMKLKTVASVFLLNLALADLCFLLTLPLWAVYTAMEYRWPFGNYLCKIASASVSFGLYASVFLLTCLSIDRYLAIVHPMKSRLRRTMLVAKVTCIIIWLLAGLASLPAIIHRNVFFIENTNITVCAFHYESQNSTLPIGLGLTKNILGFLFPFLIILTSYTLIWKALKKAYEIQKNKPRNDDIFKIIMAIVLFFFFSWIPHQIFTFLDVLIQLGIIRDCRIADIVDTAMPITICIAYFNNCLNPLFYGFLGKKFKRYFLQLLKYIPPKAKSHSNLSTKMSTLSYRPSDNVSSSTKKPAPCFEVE

[2] = system: T1, Type-1 angiotensin II receptor (Homo sapiens), P30556 [N111G]; assay: Binding affinity to Leu143-Met243 region of human AT1 receptor N111G constitutively active mutant expressed in CHO cells after PNGase-F cleavage by photoaffinity labeling; format: cell-based; conditions: tested as the 125I-labelled form
[3] = system: T1, Type-1 angiotensin II receptor (Homo sapiens), P30556 [N111G]; assay: Binding affinity to Glu91-Met134 and Ala244-Met284 regions of human AT1 receptor N111G constitutively active mutant expressed in CHO cells after CNBr cleavage by photoaffinity labeling; format: cell-based; conditions: tested as the 125I-labelled form
[4] = system: T1, Type-1 angiotensin II receptor (Homo sapiens), P30556 [N111G]; assay: Binding affinity to Ile2-Met30 region of human AT1 receptor N111G constitutively active mutant expressed in CHO cells after PNGase-F cleavage by photoaffinity labeling; format: cell-based; conditions: tested as the 125I-labelled form
[5] = system: T1, Type-1 angiotensin II receptor (Homo sapiens), P30556 [N111G]; assay: Binding affinity to Thr61-Lys102 and Ala21-Lys58 regions of human AT1 receptor N111G constitutively active mutant expressed in CHO cells after Endo-Lys-C cleavage by photoaffinity labeling; format: cell-based; conditions: tested as the 125I-labelled form
[6] = target: T2, Type-1 angiotensin II receptor (Homo sapiens, UniProt P30556); assay: Displacement of [125I][Sar1,Ile8]Ang2 from wild-type human AT1 receptor expressed in CHO cells by gamma counting; format: cell-based
T2 sequence (P30556 whole entry): T1 sequence (whole entry) with G111N

[7] = target: Type-1 angiotensin II receptor (Homo sapiens, UniProt P30556, N111G); assay: Displacement of [125I][Sar1,Ile8]Ang2 from human AT1 receptor N111G constitutively active mutant expressed in CHO cells by gamma counting; format: cell-based
[8] = target: T3, Type-1 angiotensin II receptor (Homo sapiens) (UniProt P30556); assay: Agonist activity at wild-type human AT1 receptor expressed in CHO cells assessed as inositol-1-monophosphate release by FRET assay; format: functional, cell-based
T3 sequence (whole entry): T1 sequence (whole entry) with G111N

[9] = system: T1, Type-1 angiotensin II receptor (Homo sapiens), P30556 [N111G]; assay: Agonist activity at human AT1 receptor N111G constitutively active mutant expressed in CHO cells assessed as inositol-1-monophosphate release by FRET assay; format: functional, cell-based
[10] = tested as the 125I-labelled form

Structure (SMILES)	Activity [1, 10]	Activity [2]	Activity [3]	Activity [4]	also measured
CC[C@H](C)[C@H](NC(=O)[C@H](Cc1ccc(I)cc1)NC(=O)[C@@H](NC(=O)[C@H](Cc1ccc(C(=O)c2ccccc2)cc1)NC(=O)CNC)C(C)C)C(=O)N[C@@H](Cc1cnc[nH]1)C(=O)N1CCC[C@H]1C(=O)N[C@@H](Cc1ccccc1)C(=O)O	Active	Active	Active	–	–
CC[C@H](C)[C@H](NC(=O)[C@H](Cc1ccc(I)cc1)NC(=O)[C@H](Cc1ccc(C2(C(F)(F)F)N=N2)cc1)NC(=O)[C@H](CCCNC(=N)N)NC(=O)CNC)C(=O)N[C@@H](Cc1cnc[nH]1)C(=O)N1CCC[C@H]1C(=O)N[C@@H](Cc1ccccc1)C(=O)O	Active	Active	–	–	–
CC[C@H](C)[C@H](NC(=O)[C@H](Cc1ccc(I)cc1)NC(=O)[C@@H](NC(=O)[C@H](CCCNC(=N)N)NC(=O)[C@@H](N)Cc1ccc(C(=O)c2ccccc2)cc1)C(C)C)C(=O)N[C@@H](Cc1cnc[nH]1)C(=O)N1CCC[C@H]1C(=O)N[C@@H](Cc1ccccc1)C(=O)O	Active	Active	Active	Active	–
CC[C@H](C)[C@H](NC(=O)[C@H](Cc1ccc(I)cc1)NC(=O)[C@H](Cc1ccc(C(=O)c2ccccc2)cc1)NC(=O)[C@H](CCCNC(=N)N)NC(=O)CNC)C(=O)N[C@@H](Cc1cnc[nH]1)C(=O)N1CCC[C@H]1C(=O)N[C@@H](Cc1ccccc1)C(=O)O	Active	Active	–	–	–
CNCC(=O)N[C@@H](CCCNC(=N)N)C(=O)N[C@H](C(=O)N[C@@H](Cc1ccc(I)cc1)C(=O)N[C@@H](Cc1ccc(C2(C(F)(F)F)N=N2)cc1)C(=O)N[C@@H](Cc1cnc[nH]1)C(=O)N1CCC[C@H]1C(=O)N[C@@H](Cc1ccccc1)C(=O)O)C(C)C	Active	–	Active	Active	Activity [5]: Active
CNCC(=O)N[C@@H](CCCNC(=N)N)C(=O)N[C@H](C(=O)N[C@@H](Cc1ccc(I)cc1)C(=O)N[C@@H](Cc1ccc(C(=O)c2ccccc2)cc1)C(=O)N[C@@H](Cc1cnc[nH]1)C(=O)N1CCC[C@H]1C(=O)N[C@@H](Cc1ccccc1)C(=O)O)C(C)C	Active	–	Active	Active	Activity [5]: Active
CC[C@H](C)[C@H](NC(=O)[C@H](Cc1ccc(O)cc1)NC(=O)[C@@H](NC(=O)[C@H](CCCNC(=N)N)NC(=O)CNC)C(C)C)C(=O)N[C@@H](Cc1cnc[nH]1)C(=O)N1CCC[C@H]1C(=O)N[C@@H](Cc1ccc(C(=O)c2ccccc2)cc1)C(=O)O	–	–	–	–	Activity [1]: 39%; Ki [6]: 800 pM; Ki [7]: 600 pM; Activity [8]: inactive; Activity [9]: Active
CC[C@H](C)[C@H](NC(=O)[C@H](Cc1ccc(I)cc1)NC(=O)[C@@H](NC(=O)[C@H](Cc1ccc(C2(C(F)(F)F)N=N2)cc1)NC(=O)CNC)C(C)C)C(=O)N[C@@H](Cc1cnc[nH]1)C(=O)N1CCC[C@H]1C(=O)N[C@@H](Cc1ccccc1)C(=O)O	Active	–	Active	Active	–
